# Reference: US20170044222A1, “Anti-Microbial Coatings and Devices” (priority 2015, published 2017)
# Several values for one entry are separate records, joined by “and”; a condition that tells them apart may be missing. Identical values can stand only once. Entries after “also recorded” stand apart in the source; their conditions may differ. Ends that are not written are not given here.
# Assays:
# [1] = QCM-D mass attachment, layer thickness and areal mass of tether/peptide layers (Sauerbrey and Voigt-Kelvin); format: physicochemical; conditions: for Chrysophsin-1 attachment ng Voigt-Kelvin / Chrysophsin-1 attachment ng Sauerbrey: 10 μM peptide, 23° C; for Chrysophsin-1 attachment ng Voigt-Kelvin: Voigt-Kelvin viscoelastic model; for Chrysophsin-1 attachment ng Sauerbrey: mean of 3rd-11th overtones ± standard error; for C-CHY1 areal mass (ng/cm^2) Sauerbrey: Sauerbrey estimation divided by crystal surface area; for C-CHY1 areal mass (ng/cm^2) Voigt-Kelvin / PEG/C-CHY1 layer thickness (nm) Voigt-Kelvin: Voigt-Kelvin model; for C-CHY1 areal mass (ng/cm^2) Voigt-Kelvin: includes PEG spacer, attached C-CHY1 and trapped buffer; for PEG/C-CHY1 layer thickness (nm) Voigt-Kelvin: tether plus peptide film, or physically-adsorbed CHY1 film
# Description: Referring to FIG. 1, the surface is functionalized with the anti-microbial peptide via a flexible linker molecule and exposed to bacteria in the QCM-D using QCM-D sensors as the substrate. Referring to FIG. 2 QCM-D was used to monitor covalent attachment in real-time of the PEG spacer molecule followed by introduction of the C-CHY1 peptide to the functionalized SiO2 surface (FIG. 2). According to the Sauerbrey calculation, the Δm due to PEG spacers is between 2 and 100 ng per crystal (Table 1, below; FIG. 3). The mass of PEG attached decreases with increasing tether length (FIG. 3). PEGylated surfaces show a rigid surface (ΔD values from +1×10^−6 to +2×10^−6 Hz) compared to the bulk fluid baseline, validating the use of Eqn. 1 and 2 for PEG layer calculations. When C-CHY1 is introduced, there is a rapid decrease of Δf corresponding to a Δm of 0.8 to 2.2 μg (Table 1) bound to the surface. This step is accompanied by a large increase in ΔD from near +2×10^−6 to +20×10^−6 Hz after the introduction of C-CHY1. Comparatively, CHY1 introduction leads to a Δf decrease corresponding a Δm of about 0.4 μg of CHY1 being physically-adsorbed on the surface.
# Thus, parameters of the system were modeled using the Voigt-Kelvin extended viscoelastic model in Q-Tools software (Biolin Scientific, Stockholm, Sweden). This model corrects the Sauerbrey estimations for higher energy dissipation by adding terms to the Δf relation to mass (Eqn. 3) and ΔD relation to film rigidity (Eqn. 4).
# Where ηL is the viscosity of the bulk liquid assumed to be water (kg/m·s); δL, and δf are the decay lengths of the acoustic wave in the bulk liquid and film (m), respectively; mq and mf […], respectively; ρf is the film density (kg/m^3). The layer was modeled to get numerical outputs for layer viscosity, density, and shear modulus (ηm, ρm, and μm), and film thickness. All overtones were modeled at once. The bulk liquid, predominantly PBS or PBS/EDTA, was assumed to have the same viscosity and density as water at 23° C. Model step size and output ranges were changed based on calculated theoretical values using estimated extended molecule size, and the lowest chi square value (χ^2) was taken. Once values of thickness (nm) and density (kg/m^3) were found with the model, the two were multiplied to calculate areal mass in ng/cm^2.
# QCM-D: Covalent Linking of C-CHY1. SiO2-coated quartz crystal sensors from Biolin Scientific (Stockholm, Sweden) were used as immobilization platforms for the modified C-CHY1. Before use, SiO2 sensors were cleaned in the QCM-D at 40° C. using ethanol, DI water, 2% sodium dodecyl sulfate (w/v), DI water again, and then nitrogen dried. Lastly, sensor surfaces were treated for 2 min using an oxygen plasma cleaner (SPI Supplies, PA USA) to both clean and functionalize the surface. The SiO2 crystals were then silanized by submerging in a 10% (v/v) (3-Aminopropyl)-trimethoxysilane (APTMS) in methanol solution for 20 min. Each sensor was then rinsed twice thoroughly with methanol and DI water and placed in each QCM-D chamber.
# Changes in frequency (Δf, Hz) and dissipation (ΔD, ×10-6 Hz) at the 3rd, 5th, 7th, 9th and 11th overtones were monitored at a constant 23° C. in all chambers using a Q-Sense E4 QCM-D system (Biolin Scientific, Stockholm, Sweden). All flow rates for the solutions were at 0.1 mL/min unless otherwise noted, and all volumes given are on a per chamber basis. PBS/EDTA (pH 7.2) buffer was used to establish a stable baseline measurement. Maleimide PEG N-hydroxysuccinimide ester molecules (MAL-PEG-NHS) with molecular weights (MW) of 866 (ThermoScientific, Waltham Mass., USA), 2000, or 7500 (JenKem Technology USA Inc., Allen, Tex. USA) were purchased. These will be referred to as PEG 866, PEG 2000 and PEG 7500, respectively. One mL of 100 μM MAL-PEG-NHS was flowed through the QCM-D and subsequently incubated for 30 min. Crystals were then rinsed with 1.2 mL of the PBS/EDTA (pH 7.2) buffer. […]
# [2] = system: Escherichia coli HB101 (ATCC 33694); assay: Bacterial mortality on peptide-coated QCM-D sensors (LIVE/DEAD BacLight), E. coli; format: cell-based; conditions: for mortality of E. coli: 1 hour exposure to surface-bound peptide, PEG binding at 23° C; for bactericidal activity against E. coli compared across tether lengths: C-CHY1 tethered via PEG 866, 2000 or 7500, 1 hour exposure
# Description: (§1) Bacterial Strains and Culturing. Escherichia coli HB101 (ATCC 33694) and Staphylococcus aureus (ATCC 48366) were cultured overnight in Luria-Bertani broth (20 g/L). For QCM-D and toxicity studies, cells were harvested at the late logarithmic phase in their growth curve, as confirmed by absorbance measurements (OD(600)=0.7-1.0 arbitrary units) (Thermo Scientific USA, Waltham, Mass. USA). The cells were centrifuged at 1284×g (Centrific Thermo Scientific, Waltham, Mass. USA) and re-suspended in 0.01 M, pH 7.2 phosphate buffered saline (PBS) (Sigma Aldrich, St. Louis, Mo. USA) twice, and then diluted 100-fold to approximately 10^8 cfu/mL.
# (§2) Changes in frequency (Δf, Hz) and dissipation (ΔD, ×10-6 Hz) at the 3rd, 5th, 7th, 9th and 11th overtones were monitored at a constant 23° C. in all chambers using a Q-Sense E4 QCM-D system (Biolin Scientific, Stockholm, Sweden). All flow rates for the solutions were at 0.1 mL/min unless otherwise noted, and all volumes given are on a per chamber basis. PBS/EDTA (pH 7.2) buffer was used to establish a stable baseline measurement. Maleimide PEG N-hydroxysuccinimide ester molecules (MAL-PEG-NHS) with molecular weights (MW) of 866 (ThermoScientific, Waltham Mass., USA), 2000, or 7500 (JenKem Technology USA Inc., Allen, Tex. USA) were purchased. These will be referred to as PEG 866, PEG 2000 and PEG 7500, respectively. One mL of 100 μM MAL-PEG-NHS was flowed through the QCM-D and subsequently incubated for 30 min. Crystals were then rinsed with 1.2 mL of the PBS/EDTA (pH 7.2) buffer. Similarly, 1.25 mL of 10 μM C-CHY1 solution was then flown over the sensors and allowed to incubate for 30 min. To rinse excess C-CHY1 off the surface and prepare for the introduction of 2 mL bacteria, a 45 min PBS rinse at 0.3 mL/min was first flowed through the QCM-D. The dilute bacterial solution was allowed to incubate for 1 hour, followed by a final 2 mL PBS (pH 7.2) rinse. The crystals were removed from the chambers and placed in individual petri dishes containing 0.85% (w/v) NaCl solution for bacterial viability testing.
# QCM-D Control Experiments: Physical Adsorption of CHY1. Similarly, SiO2-coated sensors were used for physical adsorption of unmodified CHY1 and were prepared as described above. For this experiment there was no APTMS functionalization or PEG flow, thus, after cleaning, the crystals were placed immediately into the QCM-D, PBS (pH 7.2) was used to establish a baseline and 1.25 mL of 10 μM CHY1 solution was introduced. Then, flow was stopped and CHY1 was incubated for 30 min. […]
# (§3) Bacterial Mortality. Bacterial mortality was determined immediately after the final rinse of the QCM-D experiment. […]
# keratinocyte = conditions: cited from earlier work
# [3] = system: Staphylococcus aureus (ATCC 48366); assay: Bacterial mortality on peptide-coated QCM-D sensors (LIVE/DEAD BacLight), S. aureus; format: cell-based; conditions: for mortality of S. aureus: 1 hour exposure to surface-bound peptide, PEG binding at 23° C; for bactericidal activity against S. aureus compared across tether lengths: C-CHY1 tethered via PEG 866, 2000 or 7500, 1 hour exposure
# Description: as §1, §2
# QCM-D Control Experiments: Physical Adsorption of CHY1. Similarly, SiO2-coated sensors were used for physical adsorption of unmodified CHY1 and were prepared as described above. For this experiment there was no APTMS functionalization or PEG flow, thus, after cleaning, the crystals were placed immediately into the QCM-D, PBS (pH 7.2) was used to establish a baseline and 1.25 mL of 10 μM CHY1 solution was introduced. Then, flow was stopped and CHY1 was incubated for 30 min. The rest of the protocol described in the previous section was then followed, including the 0.3 mL/min PBS rinse, bacterial flow, bacterial incubation and final PBS rinse. The crystals were removed from the chambers and placed in individual petri dishes containing 0.85% (w/v) NaCl solution for bacterial viability testing. For the next type of control, crystals that had never been coated with APTMS were cleaned and placed into the QCM-D chambers without functionalization. Starting with a PBS rinse, the crystals were exposed to bacteria solution for 1 hour and then rinsed before imaging. For the APTMS control, crystals were cleaned and functionalized with APTMS. Then the procedure continued starting with a PBS rinse (pH 7.2), bacteria introduction, incubation, and a final rinse before imaging. […]
# as §3
# epithelial cells = conditions: cited from earlier work
compound,measurement,setting,value
Maleimide PEG N-hydroxysuccinimide ester [PEG 866],Chrysophsin-1 attachment ng Voigt-Kelvin,[1]; QCM-D,835.2 ± 168 ng
same,Chrysophsin-1 attachment ng Sauerbrey,[1]; QCM-D,874.0 ± 48.8 ng
same,C-CHY1 areal mass (ng/cm^2) Sauerbrey,[1]; QCM-D,1113 ± 62.2 ng/cm^2
same,C-CHY1 areal mass (ng/cm^2) Voigt-Kelvin,[1]; QCM-D,1063±215 ng/cm^2
same,mortality of E. coli,[2],46±2.3%
LL-37: human derived cathelicidin peptide,concentration that negatively affects keratinocyte viability,keratinocyte,10
Maleimide PEG N-hydroxysuccinimide ester [PEG 7500],Chrysophsin-1 attachment ng Voigt-Kelvin,[1]; QCM-D,1870 ± 176 ng
same,Chrysophsin-1 attachment ng Sauerbrey,[1]; QCM-D,1753 ± 43.9 ng
same,C-CHY1 areal mass (ng/cm^2) Sauerbrey,[1]; QCM-D,2232 ± 55.0 ng/cm^2
same,C-CHY1 areal mass (ng/cm^2) Voigt-Kelvin,[1]; QCM-D,2381±223 ng/cm^2 and 2381 ± 224 ng/cm^2
same,PEG/C-CHY1 layer thickness (nm) Voigt-Kelvin,[1]; QCM-D,21.9±1.86 nm
same,extension of layer: modelled thickness as percent of theoretical maximum thickness,[1]; Voigt-Kelvin thickness vs theoretical maximum,38%
same,bactericidal activity against E. coli compared across tether lengths,[2],most efficient bactericidal activity; also recorded: highest activity
same,mortality of S. aureus,[3],64±4.5%
same,bactericidal activity against S. aureus compared across tether lengths,[3],most efficient bactericidal activity; also recorded: highest activity
same,mortality of S. aureus after temperature-optimized PEG binding,"[3]; PEG 7500 binding at 55° C, back to 23° C for C-CHY1 binding and 1 hour S. aureus incubation",91±6.9%
"FFGWLIKGAIHAGKAIHGLIHRRRH [CHY1, Chrysophsin-1, reference compound]",Chrysophsin-1 attachment ng Voigt-Kelvin,[1]; QCM-D,373.3 ± 58.6 ng
same,Chrysophsin-1 attachment ng Sauerbrey,[1]; QCM-D,204.9 ± 7.99 ng
same,C-CHY1 areal mass (ng/cm^2) Sauerbrey,[1]; QCM-D,260.9 ± 10.2 ng/cm^2
same,C-CHY1 areal mass (ng/cm^2) Voigt-Kelvin,[1]; QCM-D,475.3 ± 74.6 ng/cm^2
same,PEG/C-CHY1 layer thickness (nm) Voigt-Kelvin,[1]; QCM-D,2.5±0.5 nm
same,PEG/C-CHY1 layer thickness (nm) Voigt-Kelvin,"[1]; QCM-D, listed as No Tether (PHYS-ADSORB)",2.50 ± 0.49 nm
same,Δm bound to the surface on peptide introduction,"[1]; QCM-D, from Δf decrease on peptide flow, before rinse",about 0.4 μg
same,peptide remaining adsorbed after rinse,"[1]; physical adsorption, after PBS rinse",about 50%
same,mortality of E. coli,[2],52.3±1.2%
same,mortality of S. aureus,[3],56.7±1.1%
Maleimide PEG N-hydroxysuccinimide ester [PEG 2000],Chrysophsin-1 attachment ng Voigt-Kelvin,[1]; QCM-D,2284 ± 113 ng
same,Chrysophsin-1 attachment ng Sauerbrey,[1]; QCM-D,2238 ± 60.4 ng
same,C-CHY1 areal mass (ng/cm^2) Sauerbrey,[1]; QCM-D,2850 ± 76.9 ng/cm^2
same,C-CHY1 areal mass (ng/cm^2) Voigt-Kelvin,[1]; QCM-D,2909±144 ng/cm^2
same,PEG/C-CHY1 layer thickness (nm) Voigt-Kelvin,[1]; QCM-D,17.6±1.3 nm and 17.6±1.32 nm
same,bactericidal activity against E. coli compared across tether lengths,[2],lowest ability to kill
same,bactericidal activity against S. aureus compared across tether lengths,[3],lowest ability to kill
CC[C@H](C)[C@H](NC(=O)CN)C(=O)NCC(=O)N[C@@H](C)C(=O)N[C@H](C(=O)N[C@@H](CC(C)C)C(=O)N[C@@H](CCCCN)C(=O)N[C@H](C(=O)N[C@@H](CC(C)C)C(=O)N[C@H](C(=O)N[C@H](C(=O)NCC(=O)N[C@@H](CC(C)C)C(=O)N1CCC[C@H]1C(=O)N[C@@H](C)C(=O)N[C@@H](CC(C)C)C(=O)N[C@H](C(=O)N[C@@H](CO)C(=O)N[C@@H](Cc1c[nH]c2ccccc12)C(=O)N[C@H](C(=O)N[C@@H](CCCCN)C(=O)N[C@@H](CCCNC(=N)N)C(=O)N[C@@H](CCCCN)C(=O)N[C@@H](CCCNC(=N)N)C(=O)N[C@@H](CCC(N)=O)C(=O)N[C@@H](CCC(N)=O)C(N)=O)[C@@H](C)CC)[C@@H](C)CC)[C@@H](C)O)[C@@H](C)O)C(C)C)C(C)C [melittin],concentration with significant toxicity against epithelial cells,epithelial cells,1.2
